{
  "source": "patent US20080287375A1",
  "about": "“Selective Glycosidase Inhibitors, Methods of Making Inhibitors, and Uses Thereof” (SIMON FRASER UNIVERSITY, priority 2005, published 2008)",
  "key": {"O-GlcNAcase [1]": {"target": "T1, O-GlcNAcase (Homo sapiens, UniProt O60502)", "T1 sequence (O60502 1-916)": "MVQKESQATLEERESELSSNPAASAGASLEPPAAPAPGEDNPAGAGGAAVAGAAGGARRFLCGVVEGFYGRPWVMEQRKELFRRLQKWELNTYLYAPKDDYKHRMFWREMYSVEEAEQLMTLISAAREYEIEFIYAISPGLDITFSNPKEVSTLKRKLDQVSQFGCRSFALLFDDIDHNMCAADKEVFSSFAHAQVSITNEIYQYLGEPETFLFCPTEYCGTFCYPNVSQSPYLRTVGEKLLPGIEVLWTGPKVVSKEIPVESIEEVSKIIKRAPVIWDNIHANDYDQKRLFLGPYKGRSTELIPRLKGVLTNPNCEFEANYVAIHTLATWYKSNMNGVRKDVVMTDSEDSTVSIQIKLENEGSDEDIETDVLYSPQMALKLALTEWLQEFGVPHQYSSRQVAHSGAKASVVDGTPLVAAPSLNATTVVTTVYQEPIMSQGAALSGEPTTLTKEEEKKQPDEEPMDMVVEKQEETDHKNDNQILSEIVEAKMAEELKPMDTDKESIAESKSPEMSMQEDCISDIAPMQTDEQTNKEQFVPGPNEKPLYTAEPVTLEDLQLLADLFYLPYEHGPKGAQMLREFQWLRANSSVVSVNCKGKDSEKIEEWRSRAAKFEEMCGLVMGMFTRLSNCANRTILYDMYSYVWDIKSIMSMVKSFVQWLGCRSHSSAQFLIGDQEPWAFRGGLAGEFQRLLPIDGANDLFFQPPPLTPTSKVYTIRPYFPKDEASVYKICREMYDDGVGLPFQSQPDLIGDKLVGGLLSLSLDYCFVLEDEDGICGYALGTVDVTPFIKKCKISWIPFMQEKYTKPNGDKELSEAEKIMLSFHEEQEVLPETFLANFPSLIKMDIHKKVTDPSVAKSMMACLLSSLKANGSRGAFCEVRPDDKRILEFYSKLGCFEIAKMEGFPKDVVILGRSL", "assay": "Michaelis-Menten kinetics of O-GlcNAcase catalyzed hydrolysis of 4-methylumbelliferyl GlcNAc substrate analogues", "type": "biochemical", "settings": "37° C., pH 6.5", "description": "For O-GlcNAcase the value of Vmax[E]0/KM is also dependant on the extent of fluorine substitution but the slope is more shallow (ρ=−0.42±0.08, FIG. 2C)."}, "[2]": {"target": "human placental β-hexosaminidase", "assay": "Inhibition of β-hexosaminidase, substrate pNP-GlcNAc, Dixon plots", "settings": "for Ki: read-out: β-Hexosaminidase KI, Table 3, substrate pNP-GlcNAc 0.5 mM, pH 4.25"}, "[3]": {"target": "human placental β-hexosaminidase", "assay": "Inhibition of β-hexosaminidase, substrate MU-GlcNAc (5), Dixon plots"}, "O-GlcNAcase [4]": {"target": "T1, O-GlcNAcase", "assay": "biochemical"}, "O-GlcNAcase [5]": {"target": "T1, O-GlcNAcase", "settings": "for Selectivity Ratio (β-Hex KI/O-GlcNAcase KI): Table 2"}, "[6]": {"system": "O-GlcNAc modified proteins in rat tissues", "assay": "Oral availability: tissue O-GlcNAc levels in rats fed inhibitor in chow", "type": "in vivo", "protocol": "To determine if the inhibitor 9c is orally available, it was incorporated into the chow (Lab Diet 5001 Rodent Diet, PMI Nutrition International, LLC). To make the rat chow, 600 g of the ground chow was mixed with 355 ml of water and 5 μL of the inhibitor dissolved in ethanol. Small pieces were then prepared with a pasta machine (Pasta Express, Creative) and dehydrated overnight at 37° C. (Snackmaster Dehydrator, American Harvest). Five sets of chow were made with the following amounts of inhibitor: 0 mg kg^−1 days^−1, 100 or 1000 mg kg^−1 days^−1 of the deprotected (polar) inhibitor, and 100 or 1000 mg kg^−1 day^−1 of the protected (non-polar) inhibitor. […] Ten five-week old healthy Sprague-Dawley rats (two per set of food) were then allowed to feed on the rat chow for three days. The animals were then sacrificed and tissues were collected, homogenized, and analyzed as described above."}, "O-GlcNAcase [7]": {"target": "T1, O-GlcNAcase", "assay": "Inhibition of O-GlcNAcase, substrate pNP-GlcNAc, Dixon plots", "settings": "for Selectivity Ratio (β-Hexosaminidase KI/O-GlcNAcase KI): Table 3"}, "[8]": {"settings": "read-out: β-Hexosaminidase KI, Table 2, substrate 5 at 0.64 mM, pH 4.25, Dixon plots"}, "[9]": {"settings": "rats fed inhibitor in food for three days"}},
  "data": [
    {"molecule": "Cc1cc(=O)oc2cc(O[C@@H]3O[C@H](CO)[C@@H](O)[C@H](O)[C@H]3NC(=O)C(F)(F)F)ccc12", "note": "[MuGlcNAc-F3, 4-Methylumbelliferyl 2-deoxy-2-trifluoroacetamido-β-D-glucopyranoside]", "values": [
      {"measurement": "Km", "setting": "O-GlcNAcase [1]", "value": "380 ± 30", "unit": "µM"},
      {"measurement": "Vmax [E]o", "setting": "O-GlcNAcase [1]", "value": "0.033 ± 0.001", "unit": "µmol/min/mg"}
    ]},
    {"molecule": "CC(=O)N[C@H]1/C(=N/OC(=O)Nc2ccccc2)O[C@H](CO)[C@@H](O)[C@@H]1O", "note": "[PUGNAc, O-(2-acetamido-2-deoxy-D-glucopyranosylidene)amino N-phenylcarbamate]", "values": [
      {"measurement": "Ki", "setting": "[2]", "value": 0.036, "unit": "µM"},
      {"measurement": "Ki", "setting": "[3]; read-out: KI, β-hexosaminidase, human lysosomal β-hexosaminidase", "value": 0.036, "unit": "µM"},
      {"measurement": "Ki", "setting": "[3]; [8]", "value": 0.036, "unit": "µM"}
    ]},
    {"molecule": "CCCCCC1=N[C@@H]2[C@@H](O)[C@H](O)[C@@H](CO)O[C@@H]2S1", "note": "[Compound 9e, 1,2-dideoxy-2′-pentyl-α-D-glucopyranoso-[2,1-d]-Δ2′-thiazoline]", "values": [
      {"measurement": "Ki", "setting": "O-GlcNAcase [4]", "value": 57, "unit": "µM"},
      {"measurement": "Selectivity Ratio (β-Hex KI/O-GlcNAcase KI)", "setting": "O-GlcNAcase [5]", "value": 100},
      {"measurement": "Ki", "setting": "[3]; [8]", "value": 11000, "unit": "µM"}
    ]},
    {"molecule": "CCC1=N[C@@H]2[C@@H](O)[C@H](O)[C@@H](CO)O[C@@H]2S1", "note": "[Compound 9b, 1,2-dideoxy-2′-ethyl-α-D-glucopyranoso-[2,1-d]-Δ2′-thiazoline]", "values": [
      {"measurement": "Ki", "setting": "O-GlcNAcase [4]", "value": 0.12, "unit": "µM"},
      {"measurement": "inhibition of O-GlcNAcase, in words", "setting": "O-GlcNAcase [5]", "value": "potent inhibitors"},
      {"measurement": "selectivity for O-GlcNAcase over β-hexosaminidase, in words", "setting": "O-GlcNAcase [5]", "value": "remarkable selectivity"},
      {"measurement": "Selectivity Ratio (β-Hex KI/O-GlcNAcase KI)", "setting": "O-GlcNAcase [5]", "value": 270},
      {"measurement": "increase in KI for β-hexosaminidase compared to parent NAG-thiazoline (9a)", "setting": "[3]", "value": 460, "unit": "fold"},
      {"measurement": "Ki", "setting": "[3]; [8]", "value": 32, "unit": "µM"}
    ]},
    {"molecule": "CCCC1=N[C@@H]2[C@@H](OC(C)=O)[C@H](OC(C)=O)[C@@H](COC(C)=O)O[C@@H]2S1", "note": "[9c (protected), 3,4,6-tri-O-acetyl-1,2-dideoxy-2′-propyl-α-D-glucopyranoso-[2,1-d]-Δ2′-thiazoline]", "values": [
      {"measurement": "cellular levels of O-GlcNAc modified proteins in brain tissue, oral 100 mg/kg/day", "setting": "[6]; rats fed inhibitor in chow for three days", "value": "marked increases"},
      {"measurement": "cellular levels of O-GlcNAc modified proteins in brain tissue, oral 1000 mg/kg/day", "setting": "[6]; rats fed inhibitor in chow for three days, compared with 100 mg/kg/day", "value": "even greater"},
      {"measurement": "O-GlcNAc modified proteins in brain, muscle, pancreas, fat and spleen, oral 100 mg kg^−1 day^−1 (FIG. 12 legend)", "setting": "[6]; [9]", "value": "large increases"},
      {"measurement": "O-GlcNAc modified proteins in tissues, oral 1000 mg kg^−1 days^−1 (FIG. 12 legend)", "setting": "[6]; [9]", "value": "slightly greater increases"}
    ]},
    {"molecule": "Cc1cc(=O)oc2cc(O[C@@H]3O[C@H](CO)[C@@H](O)[C@H](O)[C@H]3NC(=O)C(F)F)ccc12", "note": "[MuGlcNAc-F2, 4-Methylumbelliferyl 2-deoxy-2-difluoroacetamido-β-D-glucopyranoside]", "values": [
      {"measurement": "Km", "setting": "O-GlcNAcase [1]", "value": "450 ± 50", "unit": "µM"},
      {"measurement": "Vmax [E]o", "setting": "O-GlcNAcase [1]", "value": "0.16 ± 0.01", "unit": "µmol/min/mg"}
    ]},
    {"molecule": "CCC(=O)N[C@H]1C(=NOC(=O)Nc2ccccc2)O[C@H](CO)[C@@H](O)[C@@H]1O", "note": "[Compound 22a]", "values": [
      {"measurement": "increase in KI for β-hexosaminidase compared to parent PUGNAc", "setting": "[2]", "value": 33, "unit": "fold"},
      {"measurement": "Ki", "setting": "[2]", "value": 1.2, "unit": "µM"},
      {"measurement": "Ki", "setting": "O-GlcNAcase [7]", "value": 1.2, "unit": "µM"},
      {"measurement": "Selectivity Ratio (β-Hexosaminidase KI/O-GlcNAcase KI)", "setting": "O-GlcNAcase [7]", "value": 1}
    ]},
    {"molecule": "CC(C)CC(=O)N[C@H]1C(=NOC(=O)Nc2ccccc2)O[C@H](CO)[C@@H](O)[C@@H]1O", "note": "[Compound 22f, O-(2-deoxy-2-isovaleramido-D-glucopyranosylidene)amino N-Phenylcarbamate]", "values": [
      {"measurement": "Ki", "setting": "[2]", "value": "> 1200", "unit": "µM"},
      {"measurement": "Ki", "setting": "O-GlcNAcase [7]", "value": 190, "unit": "µM"},
      {"measurement": "Selectivity Ratio (β-Hexosaminidase KI/O-GlcNAcase KI)", "setting": "O-GlcNAcase [7]", "value": "≧6"}
    ]},
    {"molecule": "CCCCC(=O)NC1C(=NOC(=O)Nc2ccccc2)OC(CO)C(O)C1O", "note": "(stereo not drawn) [Compound 22c]", "values": [
      {"measurement": "Ki", "setting": "[2]", "value": 220, "unit": "µM"},
      {"measurement": "Ki", "setting": "O-GlcNAcase [7]", "value": 40, "unit": "µM"},
      {"measurement": "Selectivity Ratio (β-Hexosaminidase KI/O-GlcNAcase KI)", "setting": "O-GlcNAcase [7]", "value": 6}
    ]},
    {"molecule": "CC(C)C(=O)N[C@H]1C(=NOC(=O)Nc2ccccc2)O[C@H](CO)[C@@H](O)[C@@H]1O", "note": "[Compound 22e, O-(2-deoxy-2-isobutamido-D-glucopyranosylidene)amino N-Phenylcarbamate]", "values": [
      {"measurement": "Ki", "setting": "[2]", "value": 20, "unit": "µM"},
      {"measurement": "Ki", "setting": "O-GlcNAcase [7]", "value": 9, "unit": "µM"},
      {"measurement": "Selectivity Ratio (β-Hexosaminidase KI/O-GlcNAcase KI)", "setting": "O-GlcNAcase [7]", "value": 2}
    ]},
    {"molecule": "CCCC(=O)N[C@H]1C(=NOC(=O)Nc2ccccc2)O[C@H](CO)[C@@H](O)[C@@H]1O", "note": "[Compound 22b, O-(2-deoxy-2-butamido-D-glucopyranosylidene)amino N-Phenylcarbamate]", "values": [
      {"measurement": "Ki", "setting": "[2]", "value": 26, "unit": "µM"},
      {"measurement": "Ki", "setting": "O-GlcNAcase [7]", "value": 2.4, "unit": "µM"},
      {"measurement": "Selectivity Ratio (β-Hexosaminidase KI/O-GlcNAcase KI)", "setting": "O-GlcNAcase [7]", "value": 11}
    ]},
    {"molecule": "CCCCCC(=O)N[C@H]1C(=NOC(=O)Nc2ccccc2)O[C@H](CO)[C@@H](O)[C@@H]1O", "note": "[Compound 22d, O-(2-deoxy-2-hexamido-D-glucopyranosylidene)amino N-Phenylcarbamate]", "values": [
      {"measurement": "Ki", "setting": "[2]", "value": "> 900", "unit": "µM"},
      {"measurement": "Ki", "setting": "O-GlcNAcase [7]", "value": 210, "unit": "µM"},
      {"measurement": "Selectivity Ratio (β-Hexosaminidase KI/O-GlcNAcase KI)", "setting": "O-GlcNAcase [7]", "value": "≧5"}
    ]}
  ]
}
